Measured values taken from US20260130395A1, “Water Dispersible Botanical Compositions” (Aquila Black Limited, priority 2021, published 2026).

Legend:
Type in all cases: physicochemical
[1] = Stability of cannabinoid compounds and Vitamin E components in Beverage 2 (AB Red) by LCMSMS; settings: monitored 570 days
[2] = Stability of cannabinoid entourage and Vitamin E components of the powder concentrate by LCMSMS; settings: for Stability of Plant-Derived Cannabinoid Compounds in Powder Concentrate: powder stored at 21-25° C.
Method: At each time period, 0.05 g of powder was dissolved in 10 ml-15 of ethanol, diluted to fall within the analytical range, and injected into the LCMSMS for analysis.

[3] = Stability of cannabinoid compounds and Vitamin E components in Beverage 1 (AB White) by LCMSMS; settings: for storage time after which some slight degradation is shown: monitored 570 days
[4] = Stability of Nanoemulsion Concentrate 3 (α-tocopherol and Vitamin B12 content) by LCMSMS; settings: for Stability of Vitamin B12 in Nanoemulsion Concentrate 3: average of triplicate
Method: At each time period (0, 7, 28, 60, 120, 150 and 180 days), triplicate samples were analysed for content of α-tocopherol and Vitamin B12.
(FIGS. 14 and 15, Table 13). Data reported in Table 13 and plotted in FIGS. 14 and 15 are average values of the triplicate measurements taken.

C=C(C)[C@@H]1CCC(C)=C[C@H]1c1c(O)cc(CCCCC)cc1O [CBD, cannabidiol, reference compound]
storage time after which some slight degradation is shown ([1]; AB Red stored at 8° C.): > 420 days | storage time after which some slight degradation is shown ([1]; AB Red stored at 21-25° C.): > 390 days | degradation over the entire period (in words) ([2]; powder concentrate stored at 21-25° C., 570 days): no significant degradation | Stability of Plant-Derived Cannabinoid Compounds in Powder Concentrate ([2]; 0 days): 5.85 mg/g powder | Stability of Plant-Derived Cannabinoid Compounds in Powder Concentrate ([2]; 1 days): 5.69 mg/g powder | Stability of Plant-Derived Cannabinoid Compounds in Powder Concentrate ([2]; 2 days): 5.76 mg/g powder | Stability of Plant-Derived Cannabinoid Compounds in Powder Concentrate ([2]; 3 days): 5.8 mg/g powder | Stability of Plant-Derived Cannabinoid Compounds in Powder Concentrate ([2]; 5 days): 5.84 mg/g powder | Stability of Plant-Derived Cannabinoid Compounds in Powder Concentrate ([2]; 8 days): 5.91 mg/g powder | Stability of Plant-Derived Cannabinoid Compounds in Powder Concentrate ([2]; 9 days): 6.01 mg/g powder | Stability of Plant-Derived Cannabinoid Compounds in Powder Concentrate ([2]; 10 days): 5.69 mg/g powder | Stability of Plant-Derived Cannabinoid Compounds in Powder Concentrate ([2]; 11 days): 6.00 mg/g powder | Stability of Plant-Derived Cannabinoid Compounds in Powder Concentrate ([2]; 12 days): 5.76 mg/g powder | Stability of Plant-Derived Cannabinoid Compounds in Powder Concentrate ([2]; 15 days): 5.85 mg/g powder | Stability of Plant-Derived Cannabinoid Compounds in Powder Concentrate ([2]; 16 days): 5.97 mg/g powder | Stability of Plant-Derived Cannabinoid Compounds in Powder Concentrate ([2]; 17 days): 5.97 mg/g powder | Stability of Plant-Derived Cannabinoid Compounds in Powder Concentrate ([2]; 18 days): 6.01 mg/g powder | Stability of Plant-Derived Cannabinoid Compounds in Powder Concentrate ([2]; 19 days): 5.74 mg/g powder | Stability of Plant-Derived Cannabinoid Compounds in Powder Concentrate ([2]; 22 days): 5.84 mg/g powder | Stability of Plant-Derived Cannabinoid Compounds in Powder Concentrate ([2]; 23 days): 6.10 mg/g powder | Stability of Plant-Derived Cannabinoid Compounds in Powder Concentrate ([2]; 24 days): 5.89 mg/g powder | Stability of Plant-Derived Cannabinoid Compounds in Powder Concentrate ([2]; 25 days): 6.01 mg/g powder | Stability of Plant-Derived Cannabinoid Compounds in Powder Concentrate ([2]; 26 days): 6.00 mg/g powder | Stability of Plant-Derived Cannabinoid Compounds in Powder Concentrate ([2]; 29 days): 5.97 mg/g powder | Stability of Plant-Derived Cannabinoid Compounds in Powder Concentrate ([2]; 30 days): 5.94 mg/g powder | Stability of Plant-Derived Cannabinoid Compounds in Powder Concentrate ([2]; 60 days): 5.66 mg/g powder | Stability of Plant-Derived Cannabinoid Compounds in Powder Concentrate ([2]; 90 days): 6.00 mg/g powder | Stability of Plant-Derived Cannabinoid Compounds in Powder Concentrate ([2]; 120 days): 5.80 mg/g powder | Stability of Plant-Derived Cannabinoid Compounds in Powder Concentrate ([2]; 150 days): 5.65 mg/g powder | Stability of Plant-Derived Cannabinoid Compounds in Powder Concentrate ([2]; 180 days): 5.93 mg/g powder | Stability of Plant-Derived Cannabinoid Compounds in Powder Concentrate ([2]; 210 days): 5.83 mg/g powder | Stability of Plant-Derived Cannabinoid Compounds in Powder Concentrate ([2]; 240 days): 5.98 mg/g powder | Stability of Plant-Derived Cannabinoid Compounds in Powder Concentrate ([2]; 270 days): 5.72 mg/g powder | Stability of Plant-Derived Cannabinoid Compounds in Powder Concentrate ([2]; 300 days): 5.84 mg/g powder | Stability of Plant-Derived Cannabinoid Compounds in Powder Concentrate ([2]; 330 days): 6.01 mg/g powder | Stability of Plant-Derived Cannabinoid Compounds in Powder Concentrate ([2]; 360 days): 5.97 mg/g powder | Stability of Plant-Derived Cannabinoid Compounds in Powder Concentrate ([2]; 390 days): 5.93 mg/g powder | Stability of Plant-Derived Cannabinoid Compounds in Powder Concentrate ([2]; 420 days): 5.94 mg/g powder | Stability of Plant-Derived Cannabinoid Compounds in Powder Concentrate ([2]; 450 days): 5.65 mg/g powder | Stability of Plant-Derived Cannabinoid Compounds in Powder Concentrate ([2]; 480 days): 5.66 mg/g powder | Stability of Plant-Derived Cannabinoid Compounds in Powder Concentrate ([2]; 510 days): 6.01 mg/g powder | Stability of Plant-Derived Cannabinoid Compounds in Powder Concentrate ([2]; 540 days): 5.81 mg/g powder | Stability of Plant-Derived Cannabinoid Compounds in Powder Concentrate ([2]; 570 days): 5.85 mg/g powder | Stability of Plant-Derived Cannabinoid Compounds in AB White, 8° C. ([3]; AB White stored at 8° C., 0 days): 28.5 µg/mL | Stability of Plant-Derived Cannabinoid Compounds in AB White, 8° C. ([3]; AB White stored at 8° C., 1 days): 27.65 µg/mL | Stability of Plant-Derived Cannabinoid Compounds in AB White, 8° C. ([3]; AB White stored at 8° C., 2 days): 27.67 µg/mL | Stability of Plant-Derived Cannabinoid Compounds in AB White, 8° C. ([3]; AB White stored at 8° C., 3 days): 27.96 µg/mL | Stability of Plant-Derived Cannabinoid Compounds in AB White, 8° C. ([3]; AB White stored at 8° C., 5 days): 28.61 µg/mL | Stability of Plant-Derived Cannabinoid Compounds in AB White, 8° C. ([3]; AB White stored at 8° C., 8 days): 28.47 µg/mL | Stability of Plant-Derived Cannabinoid Compounds in AB White, 8° C. ([3]; AB White stored at 8° C., 9 days): 28.44 µg/mL | Stability of Plant-Derived Cannabinoid Compounds in AB White, 8° C. ([3]; AB White stored at 8° C., 10 days): 27.87 µg/mL | Stability of Plant-Derived Cannabinoid Compounds in AB White, 8° C. ([3]; AB White stored at 8° C., 11 days): 28.13 µg/mL | Stability of Plant-Derived Cannabinoid Compounds in AB White, 8° C. ([3]; AB White stored at 8° C., 12 days): 28.10 µg/mL | Stability of Plant-Derived Cannabinoid Compounds in AB White, 8° C. ([3]; AB White stored at 8° C., 15 days): 27.99 µg/mL | Stability of Plant-Derived Cannabinoid Compounds in AB White, 8° C. ([3]; AB White stored at 8° C., 16 days): 28.04 µg/mL | Stability of Plant-Derived Cannabinoid Compounds in AB White, 8° C. ([3]; AB White stored at 8° C., 17 days): 27.84 µg/mL | Stability of Plant-Derived Cannabinoid Compounds in AB White, 8° C. ([3]; AB White stored at 8° C., 18 days): 27.87 µg/mL | Stability of Plant-Derived Cannabinoid Compounds in AB White, 8° C. ([3]; AB White stored at 8° C., 19 days): 28.36 µg/mL | Stability of Plant-Derived Cannabinoid Compounds in AB White, 8° C. ([3]; AB White stored at 8° C., 22 days): 28.50 µg/mL | Stability of Plant-Derived Cannabinoid Compounds in AB White, 8° C. ([3]; AB White stored at 8° C., 23 days): 27.67 µg/mL | Stability of Plant-Derived Cannabinoid Compounds in AB White, 8° C. ([3]; AB White stored at 8° C., 24 days): 28.44 µg/mL | Stability of Plant-Derived Cannabinoid Compounds in AB White, 8° C. ([3]; AB White stored at 8° C., 25 days): 27.65 µg/mL | Stability of Plant-Derived Cannabinoid Compounds in AB White, 8° C. ([3]; AB White stored at 8° C., 26 days): 27.73 µg/mL | Stability of Plant-Derived Cannabinoid Compounds in AB White, 8° C. ([3]; AB White stored at 8° C., 29 days): 28.24 µg/mL | Stability of Plant-Derived Cannabinoid Compounds in AB White, 8° C. ([3]; AB White stored at 8° C., 30 days): 27.93 µg/mL | Stability of Plant-Derived Cannabinoid Compounds in AB White, 8° C. ([3]; AB White stored at 8° C., 60 days): 27.73 µg/mL | Stability of Plant-Derived Cannabinoid Compounds in AB White, 8° C. ([3]; AB White stored at 8° C., 90 days): 27.87 µg/mL | Stability of Plant-Derived Cannabinoid Compounds in AB White, 8° C. ([3]; AB White stored at 8° C., 120 days): 27.39 µg/mL | Stability of Plant-Derived Cannabinoid Compounds in AB White, 8° C. ([3]; AB White stored at 8° C., 150 days): 28.59 µg/mL | Stability of Plant-Derived Cannabinoid Compounds in AB White, 8° C. ([3]; AB White stored at 8° C., 180 days): 27.59 µg/mL | Stability of Plant-Derived Cannabinoid Compounds in AB White, 8° C. ([3]; AB White stored at 8° C., 210 days): 27.76 µg/mL | Stability of Plant-Derived Cannabinoid Compounds in AB White, 8° C. ([3]; AB White stored at 8° C., 240 days): 27.79 µg/mL | Stability of Plant-Derived Cannabinoid Compounds in AB White, 8° C. ([3]; AB White stored at 8° C., 270 days): 28.07 µg/mL | Stability of Plant-Derived Cannabinoid Compounds in AB White, 8° C. ([3]; AB White stored at 8° C., 300 days): 27.96 µg/mL | Stability of Plant-Derived Cannabinoid Compounds in AB White, 8° C. ([3]; AB White stored at 8° C., 330 days): 27.33 µg/mL | Stability of Plant-Derived Cannabinoid Compounds in AB White, 8° C. ([3]; AB White stored at 8° C., 360 days): 27.79 µg/mL | Stability of Plant-Derived Cannabinoid Compounds in AB White, 8° C. ([3]; AB White stored at 8° C., 390 days): 27.50 µg/mL | Stability of Plant-Derived Cannabinoid Compounds in AB White, 8° C. ([3]; AB White stored at 8° C., 420 days): 27.50 µg/mL | Stability of Plant-Derived Cannabinoid Compounds in AB White, 8° C. ([3]; AB White stored at 8° C., 480 days): 27.13 µg/mL | Stability of Plant-Derived Cannabinoid Compounds in AB White, 8° C. ([3]; AB White stored at 8° C., 510 days): 26.48 µg/mL | Stability of Plant-Derived Cannabinoid Compounds in AB White, 8° C. ([3]; AB White stored at 8° C., 540 days): 26.51 µg/mL | Stability of Plant-Derived Cannabinoid Compounds in AB White, 8° C. ([3]; AB White stored at 8° C., 570 days): 26.22 µg/mL | storage time after which some slight degradation is shown ([3]; AB White stored at 8° C.): > 480 days | storage time after which some slight degradation is shown ([3]; AB White stored at 21-25° C.): > 390 days

Vitamin B12
Stability of Vitamin B12 in Nanoemulsion Concentrate 3 ([4]; Refrigerated (2-4° C.), 0 days): 28.67 ng/mL | Stability of Vitamin B12 in Nanoemulsion Concentrate 3 ([4]; Refrigerated (2-4° C.), 7 days): 30.33 ng/mL | Stability of Vitamin B12 in Nanoemulsion Concentrate 3 ([4]; Refrigerated (2-4° C.), 28 days): 29.33 ng/mL | Stability of Vitamin B12 in Nanoemulsion Concentrate 3 ([4]; Refrigerated (2-4° C.), 60 days): 30.00 ng/mL | Stability of Vitamin B12 in Nanoemulsion Concentrate 3 ([4]; Refrigerated (2-4° C.), 120 days): 32.00 ng/mL | Stability of Vitamin B12 in Nanoemulsion Concentrate 3 ([4]; Refrigerated (2-4° C.), 150 days): 29.67 ng/mL | Stability of Vitamin B12 in Nanoemulsion Concentrate 3 ([4]; Refrigerated (2-4° C.), 180 days): 32.50 ng/mL | Stability of Vitamin B12 in Nanoemulsion Concentrate 3 ([4]; Room Temperature (21-25° C.), 0 days): 28.67 ng/mL | Stability of Vitamin B12 in Nanoemulsion Concentrate 3 ([4]; Room Temperature (21-25° C.), 7 days): 24.00 ng/mL | Stability of Vitamin B12 in Nanoemulsion Concentrate 3 ([4]; Room Temperature (21-25° C.), 28 days): 22.67 ng/mL | Stability of Vitamin B12 in Nanoemulsion Concentrate 3 ([4]; Room Temperature (21-25° C.), 60 days): 22.67 ng/mL | Stability of Vitamin B12 in Nanoemulsion Concentrate 3 ([4]; Room Temperature (21-25° C.), 120 days): 19.67 ng/mL | Stability of Vitamin B12 in Nanoemulsion Concentrate 3 ([4]; Room Temperature (21-25° C.), 150 days): 19.00 ng/mL | Stability of Vitamin B12 in Nanoemulsion Concentrate 3 ([4]; Room Temperature (21-25° C.), 180 days): 16.50 ng/mL | stability in Nanoemulsion Concentrate 3 (in words) ([4]; after 180 days stored at 21-25° C.): some slight degradation | stability in Nanoemulsion Concentrate 3 (in words) ([4]; stored at 2-4° C., 180 days): high degree of stability
